# Laboratory results published in ChEMBL document CHEMBL5038672, “Conversion of a PROTAC Mutant Huntingtin Degrader into Small-Molecule Hydrophobic Tags Focusing on Drug-like Properties” (ACS Med Chem Lett, 2022).
# Active and inactive are the calls of the source. The rule behind the calls is not given here.
# How the values were obtained:
# HeLa [1] = assay: Induction of EGFP fused Htt Q145 mutant exon 1 (unknown origin) degradation expressed in human HeLa cells assessed as HSP70/CHIP recruitment based proteosome mediated mHtt exon 1-Q145 degradation at 10 uM measured after 24 to 48 hrs by Western blot analysis; type: cell-based; conditions: time 24-48 hrs
# [2] = Apparent permeability across apical to basolateral side in human Caco-2 cells at 10 uM; type: ADME, cell-based; conditions: for Papp A→B at 10 µM: Caco-2
# HeLa [3] = assay: Induction of EGFP fused Htt Q145 mutant exon 1 (unknown origin) degradation expressed in human HeLa cells assessed as HSP70/CHIP recruitment based proteosome mediated mHtt exon 1-Q145 degradation at 10 uM measured after 24 hrs by Western blot analysis in the presence of bortezomib; type: cell-based
# [4] = Efflux ratio of apparent permeability across basolateral to apical side over apical to basolateral side in human Caco-2 cells at 10 uM; type: ADME, cell-based; conditions: for efflux ratio at 10 µM: Caco-2
# [5] = Apparent permeability across basolateral to apical side in human Caco-2 cells at 10 uM; type: ADME, cell-based; conditions: for Papp B→A at 10 µM: Caco-2
# [6] = system: Huntingtin (Homo sapiens), P42858 [UNDEFINED MUTATION]; assay: Induction of mutant Htt (unknown origin) degradation expressed in human fibroblasts cells assessed as HSP70/CHIP recruitment based proteosome mediated mHtt degradation by western blot analysis; type: cell-based; conditions: Fibroblast
# HeLa [7] = assay: Induction of EGFP fused Htt Q23 mutant exon 1 (unknown origin) degradation expressed in human HeLa cells assessed as HSP70/CHIP recruitment based proteosome mediated mHtt exon 1-Q23 degradation at 1 to 10 uM measured after 48 hrs by Western blot analysis; type: cell-based; conditions: dose 1-10 µM
# HeLa [8] = assay: Induction of EGFP fused Htt Q145 mutant exon 1 (unknown origin) degradation expressed in human HeLa cells assessed as HSP70/CHIP recruitment based proteosome mediated mHtt exon 1-Q145 degradation at 5 uM measured after 24 hrs by Western blot analysis; type: cell-based
# HeLa [9] = assay: Induction of EGFP fused Htt Q145 mutant exon 1 (unknown origin) degradation expressed in human HeLa cells assessed as HSP70/CHIP recruitment based proteosome mediated mHtt exon 1-Q145 degradation at 10 uM preincubated with geldanamycin for 6 hrs and measured after 24 hrs by Western blot analysis; type: cell-based
# HeLa [10] = assay: Induction of EGFP fused Htt Q145 mutant exon 1 (unknown origin) degradation expressed in human HeLa cells assessed as HSP70/CHIP recruitment based proteosome mediated decrease in aggregate foci at 10 uM incubated for 24 hrs by Hoechst33342 staining based fluorescence microscopic analysis; type: cell-based; set-up: scale not given: the % may be the effect or the level left
# HeLa [11] = assay: Induction of EGFP fused Htt Q145 mutant exon 1 (unknown origin) degradation expressed in human HeLa cells assessed as HSP70/CHIP recruitment based proteosome mediated mHtt exon 1-Q145 degradation at 10 uM measured after 24 hrs by Western blot analysis; type: cell-based
# [12] = Ratio of drug concentration in brain to plasma in C57BL/6J mouse at 0.1 to 0.7 mg/kg, iv measured after 4 hrs; type: ADME, organism-based; conditions: brain and plasma, dose 0.1-0.7 mg/kg
# HeLa [13] = assay: Induction of EGFP fused Htt Q145 mutant exon 1 (unknown origin) degradation expressed in human HeLa cells assessed as HSP70/CHIP recruitment based proteosome mediated mHtt exon 1-Q145 degradation at higher concentration measured after 24 hrs by Western blot analysis; type: cell-based
# Chain of Huntingtin (Homo sapiens), P42858 [UNDEFINED MUTATION] (P42858 whole entry, looked up, change not shown, the tested form may be a part): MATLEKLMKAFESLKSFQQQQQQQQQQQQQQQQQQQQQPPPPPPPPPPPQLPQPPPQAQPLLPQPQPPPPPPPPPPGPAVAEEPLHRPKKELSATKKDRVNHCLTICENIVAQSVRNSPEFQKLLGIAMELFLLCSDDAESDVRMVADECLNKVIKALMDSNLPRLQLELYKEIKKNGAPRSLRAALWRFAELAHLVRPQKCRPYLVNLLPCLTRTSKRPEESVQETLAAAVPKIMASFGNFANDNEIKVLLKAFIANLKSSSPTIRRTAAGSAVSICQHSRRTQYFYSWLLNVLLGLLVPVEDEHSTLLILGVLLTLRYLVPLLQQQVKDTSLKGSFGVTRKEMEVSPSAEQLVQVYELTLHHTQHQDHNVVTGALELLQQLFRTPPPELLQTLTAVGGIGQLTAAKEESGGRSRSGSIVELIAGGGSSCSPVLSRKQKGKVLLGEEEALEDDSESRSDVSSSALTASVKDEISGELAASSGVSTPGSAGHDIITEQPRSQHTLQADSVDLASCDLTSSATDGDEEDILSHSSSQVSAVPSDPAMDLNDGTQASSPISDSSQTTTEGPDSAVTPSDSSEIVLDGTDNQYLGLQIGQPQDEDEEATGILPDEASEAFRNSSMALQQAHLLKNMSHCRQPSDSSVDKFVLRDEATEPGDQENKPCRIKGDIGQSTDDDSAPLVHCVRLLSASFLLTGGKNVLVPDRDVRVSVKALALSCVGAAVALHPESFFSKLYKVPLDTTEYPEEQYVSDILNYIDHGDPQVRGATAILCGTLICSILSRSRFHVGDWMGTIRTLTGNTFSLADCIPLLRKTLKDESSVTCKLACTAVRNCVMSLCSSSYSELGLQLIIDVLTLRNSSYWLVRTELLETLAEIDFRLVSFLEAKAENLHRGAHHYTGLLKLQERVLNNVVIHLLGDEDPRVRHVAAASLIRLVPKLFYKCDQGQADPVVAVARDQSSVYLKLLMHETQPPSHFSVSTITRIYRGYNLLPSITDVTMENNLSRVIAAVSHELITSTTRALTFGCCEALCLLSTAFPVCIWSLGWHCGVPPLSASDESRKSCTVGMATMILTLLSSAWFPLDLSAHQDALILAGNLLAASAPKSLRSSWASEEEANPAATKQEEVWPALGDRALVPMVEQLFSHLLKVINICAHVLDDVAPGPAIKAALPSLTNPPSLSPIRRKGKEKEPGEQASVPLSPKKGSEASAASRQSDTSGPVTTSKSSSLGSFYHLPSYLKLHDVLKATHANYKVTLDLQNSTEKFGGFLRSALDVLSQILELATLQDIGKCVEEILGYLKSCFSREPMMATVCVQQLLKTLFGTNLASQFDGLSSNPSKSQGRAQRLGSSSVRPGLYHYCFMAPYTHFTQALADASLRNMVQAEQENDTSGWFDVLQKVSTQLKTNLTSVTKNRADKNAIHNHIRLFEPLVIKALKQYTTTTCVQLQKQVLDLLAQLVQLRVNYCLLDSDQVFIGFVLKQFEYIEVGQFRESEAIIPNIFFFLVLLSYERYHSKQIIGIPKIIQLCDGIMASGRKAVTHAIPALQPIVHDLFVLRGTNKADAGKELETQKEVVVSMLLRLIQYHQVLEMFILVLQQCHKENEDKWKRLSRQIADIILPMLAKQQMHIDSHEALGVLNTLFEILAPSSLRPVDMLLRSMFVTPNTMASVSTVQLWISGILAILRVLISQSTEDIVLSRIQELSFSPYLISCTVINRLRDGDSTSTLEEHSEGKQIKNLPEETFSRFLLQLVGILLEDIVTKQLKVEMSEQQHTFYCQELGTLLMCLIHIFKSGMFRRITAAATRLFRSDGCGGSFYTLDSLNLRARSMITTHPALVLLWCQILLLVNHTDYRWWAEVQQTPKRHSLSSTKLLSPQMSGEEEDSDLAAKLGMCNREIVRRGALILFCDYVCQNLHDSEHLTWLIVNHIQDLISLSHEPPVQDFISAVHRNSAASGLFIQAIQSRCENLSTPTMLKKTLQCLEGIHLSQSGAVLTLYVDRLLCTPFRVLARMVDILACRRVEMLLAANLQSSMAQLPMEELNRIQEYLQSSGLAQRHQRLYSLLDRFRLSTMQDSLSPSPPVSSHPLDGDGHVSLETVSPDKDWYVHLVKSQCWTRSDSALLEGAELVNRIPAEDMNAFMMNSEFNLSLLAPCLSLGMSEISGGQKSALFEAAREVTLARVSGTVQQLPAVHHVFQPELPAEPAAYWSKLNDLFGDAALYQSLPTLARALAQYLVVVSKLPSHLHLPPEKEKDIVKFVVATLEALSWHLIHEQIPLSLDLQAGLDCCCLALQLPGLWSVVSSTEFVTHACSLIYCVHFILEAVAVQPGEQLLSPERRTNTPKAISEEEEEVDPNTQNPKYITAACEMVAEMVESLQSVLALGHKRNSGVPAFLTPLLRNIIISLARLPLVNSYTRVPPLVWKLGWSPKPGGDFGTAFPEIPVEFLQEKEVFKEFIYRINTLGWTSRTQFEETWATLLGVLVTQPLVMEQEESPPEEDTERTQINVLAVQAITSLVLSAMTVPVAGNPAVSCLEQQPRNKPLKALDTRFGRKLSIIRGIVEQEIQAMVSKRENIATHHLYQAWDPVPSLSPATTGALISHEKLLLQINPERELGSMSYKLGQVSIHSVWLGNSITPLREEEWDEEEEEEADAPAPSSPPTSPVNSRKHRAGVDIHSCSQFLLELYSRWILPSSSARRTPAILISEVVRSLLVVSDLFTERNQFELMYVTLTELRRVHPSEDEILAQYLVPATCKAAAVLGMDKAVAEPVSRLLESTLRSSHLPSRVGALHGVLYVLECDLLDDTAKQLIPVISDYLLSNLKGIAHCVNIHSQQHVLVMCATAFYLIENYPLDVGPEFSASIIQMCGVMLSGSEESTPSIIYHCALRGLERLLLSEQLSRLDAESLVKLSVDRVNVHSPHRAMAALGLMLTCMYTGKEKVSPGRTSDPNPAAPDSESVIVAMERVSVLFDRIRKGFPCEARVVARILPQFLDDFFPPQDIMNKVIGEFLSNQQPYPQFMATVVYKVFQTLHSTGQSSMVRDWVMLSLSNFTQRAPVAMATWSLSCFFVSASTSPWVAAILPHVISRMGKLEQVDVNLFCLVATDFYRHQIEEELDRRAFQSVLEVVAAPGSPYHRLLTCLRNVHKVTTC
structure (smiles),measurement,setting,value
CN(C)c1ccc(/N=N/c2nc3ccc(OCCOCCOCCOCCOC45CC6CC(CC(C6)C4)C5)cc3s2)cc1,Activity,HeLa [1],Active
same,Papp A→B at 10 µM,[2],0.098 ×10⁻⁶ cm/s
same,Activity,HeLa [3],inactive
same,efflux ratio at 10 µM,[4],1.2
same,Papp B→A at 10 µM,[5],0.118 ×10⁻⁶ cm/s
same,Activity,[6],Dose-Dependent Effect
same,Activity,HeLa [7],inactive
same,Activity,HeLa [8],inactive
same,Activity,HeLa [9],Active
same,Activity,HeLa [10],60%
OCCOCCOCCOCCOC12CC3CC(CC(C3)C1)C2,Activity,HeLa [11],inactive
CN(C)c1ccc(/N=N/c2nc3ccc(O)cc3s2)cc1,Activity,HeLa [11],inactive
CN(C)c1ccc(/N=N/c2nc3ccc(OCCOCCOC45CC6CC(CC(C6)C4)C5)cc3s2)cc1,Papp B→A at 10 µM,[5],4.71 ×10⁻⁶ cm/s
same,Kp at 4 h,[12],4.89
CN(C)c1ccc(/N=N/c2nc3ccc(OCCOCCOCCOCCOc4cccc5ccccc45)cc3s2)cc1,Activity,HeLa [13],Active
CCCCCC(CCCCC)OCCOCCOCCOCCOc1ccc2nc(/N=N/c3ccc(N(C)C)cc3)sc2c1,Papp,"[2]; caco-2, 10 µM",2.46 10^-6 cm/s
same,Ratio,"[4]; caco-2, 10 µM",0.241
same,Papp,"[5]; caco-2, 10 µM",0.241 10^-6 cm/s
same,Activity,HeLa [13],Active
CN(C)c1ccc(/N=N/c2nc3ccc(OCCOCCOCCOCCOC45CC6CC7C8CC(CC74)CC5C8C6)cc3s2)cc1,Papp A→B at 10 µM,[2],5.32 ×10⁻⁶ cm/s
same,efflux ratio at 10 µM,[4],0.235
same,Papp B→A at 10 µM,[5],1.25 ×10⁻⁶ cm/s
same,Kp at 4 h,[12],0.13
same,Activity,HeLa [8],60%
CN(C)c1ccc(/N=N/c2nc3ccc(OCCOCCOCCOCCOC(c4ccccc4)c4ccccc4)cc3s2)cc1,Activity,HeLa [13],Active
CC(C)C[C@H](NC(=O)[C@@H](O)[C@H](N)Cc1ccccc1)C(=O)NCCOCCOCCOc1ccc2nc(/N=N/c3ccc(N(C)C)cc3)sc2c1,Papp A→B at 10 µM,[2],1.03 ×10⁻⁶ cm/s
same,efflux ratio at 10 µM,[4],0.19
same,Papp B→A at 10 µM,[5],0.196 ×10⁻⁶ cm/s
